In test [1] the target is Mu-type opioid receptor (Homo sapiens) (UniProt P35372). The test is described as follows: Antagonist activity at human mu opioid receptor over-expressed in CHO cell membrane assessed as inhibition of DAMGO-induced [35S]GTPgammaS binding at 10 uM after 1 hr by scintillation counting method. The format is functional, cell membranes.
In test [2] the test system is CHO. Kind of test: Selectivity ratio, ratio of Ke for human kappa opioid receptor over-expressed in CHO cell membrane to Ke for human delta opioid receptor over-expressed in CHO cell membrane. Format: cell-based.
Test [3] concerns the target T1, Delta-type opioid receptor (Homo sapiens, UniProt P41143). The test is described as follows: Agonist activity at human delta opioid receptor over-expressed in CHO cell membrane after 1 hr by [35S]GTPgammaS binding assay. The format is functional, cell membranes.
Test [4] has as its target Kappa-type opioid receptor (Homo sapiens) (UniProt P41145). The test is described as follows: Agonist activity at human kappa opioid receptor over-expressed in CHO cell membrane after 1 hr by [35S]GTPgammaS binding assay. The format is functional, cell membranes.
The target is the same in test [5]. Kind of test: Antagonist activity at human kappa opioid receptor over-expressed in CHO cell membrane assessed as inhibition of U69,593-induced [35S]GTPgammaS binding at 10 uM after 1 hr by scintillation counting method. Format: functional, cell membranes.
In test [6] the target is Mu-type opioid receptor (Homo sapiens) (UniProt P35372). The test is described as follows: Agonist activity at human mu opioid receptor over-expressed in CHO cell membrane after 1 hr by [35S]GTPgammaS binding assay. The format is functional, cell membranes.
Test [7] concerns the target T1, Delta-type opioid receptor. Kind of test: Antagonist activity at human delta opioid receptor over-expressed in CHO cell membrane assessed as inhibition of DPDPE-induced [35S]GTPgammaS binding at 10 uM after 1 hr by scintillation counting method. Format: functional, cell membranes.
For test [8], the system named is CHO. Kind of test: Selectivity ratio, ratio of Ke for human mu opioid receptor over-expressed in CHO cell membrane to Ke for human delta opioid receptor over-expressed in CHO cell membrane. Format: cell-based.

Structures are written as SMILES. Activity calls are given as the source filed them. The rule behind the calls is not given here.

Chain of Mu-type opioid receptor (Homo sapiens) (P35372 whole entry): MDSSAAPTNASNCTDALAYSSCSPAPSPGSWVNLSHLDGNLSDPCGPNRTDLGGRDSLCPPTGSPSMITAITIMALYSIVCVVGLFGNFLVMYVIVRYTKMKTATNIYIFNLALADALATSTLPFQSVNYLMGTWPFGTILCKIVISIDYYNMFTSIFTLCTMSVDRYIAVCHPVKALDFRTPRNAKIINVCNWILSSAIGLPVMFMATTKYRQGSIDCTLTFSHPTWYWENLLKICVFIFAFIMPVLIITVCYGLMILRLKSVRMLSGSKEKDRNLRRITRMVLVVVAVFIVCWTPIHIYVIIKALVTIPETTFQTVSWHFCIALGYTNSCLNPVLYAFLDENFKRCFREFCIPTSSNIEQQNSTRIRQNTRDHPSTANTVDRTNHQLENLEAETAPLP
Chain of Kappa-type opioid receptor (Homo sapiens) (P41145 whole entry): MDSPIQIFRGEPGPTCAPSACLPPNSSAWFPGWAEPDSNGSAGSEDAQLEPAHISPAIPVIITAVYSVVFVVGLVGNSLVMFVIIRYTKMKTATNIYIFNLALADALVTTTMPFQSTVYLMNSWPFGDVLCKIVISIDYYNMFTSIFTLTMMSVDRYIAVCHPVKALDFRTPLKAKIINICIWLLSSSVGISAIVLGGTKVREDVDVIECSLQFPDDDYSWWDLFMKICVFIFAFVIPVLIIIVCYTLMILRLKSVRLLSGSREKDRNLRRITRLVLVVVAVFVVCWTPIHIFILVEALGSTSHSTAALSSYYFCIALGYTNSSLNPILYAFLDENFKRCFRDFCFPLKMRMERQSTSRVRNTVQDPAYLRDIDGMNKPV
T1 sequence (P41143 whole entry): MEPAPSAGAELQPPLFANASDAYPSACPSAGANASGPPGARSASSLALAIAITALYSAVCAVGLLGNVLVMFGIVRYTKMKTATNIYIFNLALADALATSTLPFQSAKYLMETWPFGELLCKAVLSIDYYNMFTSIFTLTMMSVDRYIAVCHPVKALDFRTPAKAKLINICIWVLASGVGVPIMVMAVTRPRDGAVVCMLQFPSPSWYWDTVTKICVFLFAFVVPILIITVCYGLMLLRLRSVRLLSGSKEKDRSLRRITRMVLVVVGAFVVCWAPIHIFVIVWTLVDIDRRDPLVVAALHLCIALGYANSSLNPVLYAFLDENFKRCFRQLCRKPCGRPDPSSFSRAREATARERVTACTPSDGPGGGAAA

As for `COc1cc(/C=C/c2ccc(O)c(O)c2CC=C(C)C)c(C/C=C(\C)CCC=C(C)C)c(OC)c1`, the Ke is > 10 µM in test [1], > 10 µM in test [5] and 0.025 µM in test [7]. Further, the Ratio Ke with CHO [2] and with CHO [8] was > 400 each time. Further, the half-maximal effective concentration (EC50) in test [3] was determined as 6.6 µM. Besides, the outcome in test [4] and in test [6] was inactive.
